# Reference: patent publication US9169252B2 (BRISTOL-MYERS SQUIBB COMPANY, priority 2014, dated 2015)
# Read-outs that look alike come from different tables or passages of the source.
# Key:
# [1] = molecular target: IRAK4 (Homo sapiens (Human), UniProt Q9NWZ3); test: IRAK4 Inhibition Assay; type: biochemical; settings: ATP 500 μM, read-out: IRAK4 IC50
# In short: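 Mobility-shift readout: fluorescent substrate and phosphoproduct resolved electrophoretically on Caliper LabChip 3000 after EDTA quench (35 mM). Enzyme reaction of IRAK4, substrates and test compound ran 60 min at room temperature.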
# [2] = test system: TLR2 induced IL-6 in peripheral blood mononuclear cells (PBMCs); test: PBMC TLR2 Induced IL-6 Assay; type: cell-based, human; settings: IL-6 by ELISA; for EC50: read-out: Cell EC50; for IC50: read-out: Cell IC50
# In short: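 Lipoteichoic acid at 10 µg/ml served as TLR2 stimulus for 5 hours, following a 30-minute compound pretreatment at 37° C. Cells were Ficoll-isolated human PBMCs, 250000 cells/well, cultured in RPMI plus 10% heat-inactivated FCS.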
# [3] = Homo sapiens, PBMC, PBMC TLR2 Induced IL-6 Assay, lipoteichoic acid stimulation
# [4] = Homo sapiens, PBMC, human PBMCs, lipoteichoic acid stimulated
# Chain of IRAK4 (Q9NWZ3 whole entry, species assumed): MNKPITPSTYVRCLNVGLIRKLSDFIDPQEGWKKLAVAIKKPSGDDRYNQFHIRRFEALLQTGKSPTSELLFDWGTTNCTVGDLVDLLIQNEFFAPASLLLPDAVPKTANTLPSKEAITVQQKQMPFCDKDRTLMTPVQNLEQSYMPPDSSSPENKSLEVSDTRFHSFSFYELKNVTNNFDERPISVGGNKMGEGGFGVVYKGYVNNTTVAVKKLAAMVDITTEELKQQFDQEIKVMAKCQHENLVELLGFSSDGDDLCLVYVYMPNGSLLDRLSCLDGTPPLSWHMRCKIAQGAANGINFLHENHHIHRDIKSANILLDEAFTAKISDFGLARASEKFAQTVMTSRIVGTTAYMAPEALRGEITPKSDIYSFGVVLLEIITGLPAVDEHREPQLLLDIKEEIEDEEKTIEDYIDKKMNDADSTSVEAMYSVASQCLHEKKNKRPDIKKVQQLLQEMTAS
Compound,IC50 ([1]; IRAK4 Inhibition Assay) [nM],"EC50 [2, 3] [nM]",IC50 ([1]; IRAK4 0.6 nM) [nM],"IC50 [2, 4] [nM]",other results
"CC(C)Nc1cc(-n2ccc3cc(C#N)cnc32)ncc1C(=O)N[C@H]1CC[C@H](S(C)(=O)=O)CC1 [Example 102, 6-(5-Cyano-1H-pyrrolo[2,3-b]pyridin-1-yl)-4-(isopropylamino)-N-((trans)-4-(methylsulfonyl)cyclohexyl)nicotinamide]",3.6,47,–,–,–
CC(C)(O)[C@H](F)CNC(=O)c1cnc(-n2ncc3cc(C#N)cnc32)cc1Nc1cc(-c2ccccc2)n[nH]1 [Example 412],–,–,3.6,53,–
CC(C)(O)[C@H](F)CNC(=O)c1cnc(-n2ccc3cc(C#N)cnc32)cc1N[C@@H]1CCN(C(=O)CC#N)C1 [Example 477],–,–,2.9,1300,"EC50 [2, 4]: 301 nM"
CC(C)(O)[C@H](F)CNC(=O)c1cnc(-n2ncc3cc(C#N)cnc32)cc1NC1COC1 [Example 546],–,–,3.7,–,"EC50 [2, 4]: 257 nM"
CC(C)(CO)Nc1cc(-n2ncc3cc(C#N)cnc32)ncc1C(=O)NC[C@@H](F)C(C)(C)O [Example 234],4.7,128,–,–,"IC50 [2, 3]: 1360 nM"
"CC(=O)Nc1cccc(Nc2cc(-n3ccc4cc(C#N)cnc43)ncc2C(=O)NC[C@@H](F)C(C)(C)O)c1 [Example 54, (R)-4-((3-acetamidophenyl)amino)-6-(5-cyano-1H-pyrrolo[2,3-b]pyridin-1-yl)-N-(2-fluoro-3-hydroxy-3-methylbutyl) nicotinamide]",1.8,254,–,–,–
"CC(C)(O)CCNC(=O)c1cnc(-n2ncc3cc(C#N)cnc32)cc1NC1CCOCC1 [Example 151, 6-(5-cyano-1H-pyrazolo[3,4-b]pyridin-1-yl)-N-(3-hydroxy-3-methylbutyl)-4-((tetrahydro-2H-pyran-4-yl)amino)nicotinamide]",14.8,443,–,–,–
CC(C)(O)[C@H](F)CNC(=O)c1cnc(-n2ncc3cc(C#N)cnc32)cc1Nc1ccn(CC(F)(F)F)n1 [Example 408],–,–,1.8,73,–
CCNC(=O)n1cc(Nc2cc(-n3ncc4cc(C#N)cnc43)ncc2C(=O)NC[C@@H](F)C(C)(C)O)cn1 [Example 386],1.5,79,–,–,"IC50 [2, 3]: 1080 nM"
"CC(C)CC(O)[C@H](C)Nc1cc(-n2ccc3cc(C#N)cnc32)ncc1C(=O)NC[C@@H](F)C(C)(C)O (single isomer, unassigned) [Example 496]",–,–,10.9,197,–
CC(C)(O)[C@H](F)CNC(=O)c1cnc(-n2ncc3cc(Cl)cnc32)cc1Nc1cnn(CC(F)F)c1 [Example 351],2.3,–,–,–,"IC50 [2, 3]: 27 nM"
CC(C)(O)[C@H](F)CNC(=O)c1cnc(-n2ccc3cc(C#N)cnc32)cc1N[C@H]1CC[C@H](C(N)=O)CC1 [Example 486],–,–,1.2,177,–
C[C@@H](F)CNc1cc(-n2ccc3cc(C#N)cnc32)ncc1C(=O)NC[C@@H](F)C(C)(C)O [Example 506],–,–,1.5,65,–
CC(C)Nc1cc(-n2ncc3cc(C#N)cnc32)ncc1C(=O)NCCc1ccncc1 [Example 259],2.5,–,–,–,"IC50 [2, 3]: 102 nM"
"CC(CCO)Nc1cc(-n2ccc3cc(C#N)cnc32)ncc1C(=O)NC[C@@H](F)C(C)(C)O (single isomer, unassigned) [Example 22]",1.8,–,–,–,"EC50 ([2]; PBMC TLR2 Induced IL-6 Assay, lipoteichoic acid stimulation): 47 nM"
CC(C)(O)[C@H](F)CNC(=O)c1cnc(-n2ncc3cc(C#N)cnc32)cc1NC1COCC1(F)F (stereo partly drawn) [Example 554],–,–,5.5,370,–
CC(C)Nc1cc(-n2ncc3cc(C#N)c(N)nc32)ncc1C(=O)NC1(C#N)CC1 [Example 325],6,–,–,–,"IC50 [2, 3]: 227 nM"
COC(C)(C)CNc1cc(-n2ncc3cc(C#N)cnc32)ncc1C(=O)NC[C@@H](F)C(C)(C)O [Example 593],–,–,19.6,408,–
CC(C)Nc1cc(-n2ncc3cc(C#N)cnc32)ncc1C(=O)NCCC1(O)CCCC1 [Example 252],3.6,–,–,–,"IC50 [2, 3]: 197 nM"
"CC(C)(O)[C@H](F)CNC(=O)c1cnc(-n2ccc3cc(C#N)cnc32)cc1NC(CO)CF (stereo partly drawn) [Example 131, 6-(5-Cyano-1H-pyrrolo[2,3-b]pyridin-1-yl)-N—((R)-2-fluoro-3-hydroxy-3-methylbutyl)-4-((1-fluoro-3-hydroxypropan-2-yl)amino)nicotinamide]",6.8,410,–,–,–
COC(=O)N1CC(Nc2cc(-n3ccc4cc(C#N)cnc43)ncc2C(=O)NC[C@@H](F)C(C)(C)O)C1 [Example 481],–,–,1.9,595,"EC50 [2, 4]: 53 nM"

Compound,IC50 ([1]; IRAK4 Inhibition Assay) [nM],"EC50 [2, 3] [nM]",IC50 ([1]; IRAK4 0.6 nM) [nM],"IC50 [2, 4] [nM]",other results
"CC(=O)OC(C)(C)C(=O)NCCNC(=O)c1cnc(-n2ccc3cc(C#N)cnc32)cc1NC(C)C [Example 125, 1-((2-(6-(5-Cyano-1H-pyrrolo[2,3-b]pyridin-1-yl)-4-(isopropylamino)nicotinamido)ethyl)amino)-2-methyl-1-oxopropan-2-yl acetate]",6.7,202,–,–,–
CC(C)(O)[C@H](F)CNC(=O)c1cnc(-n2ncc3cc(C#N)cnc32)cc1Nc1cnn(C2COC2)c1 [Example 348],1.8,–,–,–,"IC50 [2, 3]: 489 nM"
"C[C@H](CF)Nc1cc(-n2ccc3cncnc32)ncc1C(=O)NC[C@@H](F)C(C)(C)O [Example 115, N—((R)-2-fluoro-3-hydroxy-3-methylbutyl)-4-(((R)-1-fluoropropan-2-yl)amino)-6-(7H-pyrrolo[2,3-d]pyrimidin-7-yl)nicotinamide]",3.3,82,–,–,–
"COC[C@H](F)CNC(=O)c1cnc(-n2ncc3cc(C#N)cnc32)cc1NC(C)C [Example 128, (R)-6-(5-Cyano-1H-pyrazolo[3,4-b]pyridin-1-yl)-N-(2-fluoro-3-methoxypropyl)-4-(isopropylamino)nicotinamide]",8.9,248,–,–,–
Cn1cc(Nc2cc(-n3ccc4cc(C#N)cnc43)ncc2C(=O)NC[C@@H](F)C(C)(C)O)cn1 [Example 399],–,–,1.3,24,–
"CC(C)Nc1cc(-n2ncc3cncnc32)ncc1C(=O)NC[C@@H](F)C(C)(C)O [Example 144, (R)—N-(2-fluoro-3-hydroxy-3-methylbutyl)-4-(isopropylamino)-6-(1H-pyrazolo[3,4-d]pyrimidin-1-yl)nicotinamide]",6.2,148,–,–,–
CCNC(=O)CCNC(=O)c1cnc(-n2ncc3cc(C#N)cnc32)cc1NC(C)C [Example 212],12.4,192,–,–,–
CC(C)(O)[C@H](F)CNC(=O)c1cnc(-n2ccc3cc(C#N)cnc32)cc1NC1CN(S(C)(=O)=O)C1 [Example 476],–,–,3,–,"EC50 [2, 4]: 198 nM"
CC(C)(O)[C@H](F)CNC(=O)c1cnc(-n2cnc3cc(Cl)cnc32)cc1Nc1cnn(CCC#N)c1 [Example 374],3.3,–,–,–,"IC50 [2, 3]: 85 nM"
CC(C)NC(=O)c1cnc(-n2ncc3cc(C#N)cnc32)cc1Nc1cnn(CC(F)F)c1 [Example 388],11.2,–,–,–,"IC50 [2, 3]: 245 nM"
"CC(C)Nc1cc(-n2ccc3cc(C#N)cnc32)ncc1C(=O)NCCc1ccc(S(N)(=O)=O)cc1 [Example 58, 6-(5-cyano-1H-pyrrolo[2,3-b]pyridin-1-yl)-4-(isopropylamino)-N-(4-sulfamoylphenethyl)nicotinamide]",2.7,49,–,–,–
"CC(C)(O)[C@H](F)CNC(=O)c1cnc(-n2ccc3cc(C#N)cnc32)cc1NC1CCC(F)C1 (single isomer, unassigned) [Example 109]",1,45,–,–,–
"CC(C)(O)c1cccc(Nc2cc(-n3ccc4cc(C#N)cnc43)ncc2C(=O)NC[C@@H](F)C(C)(C)O)c1 [Example 59, (R)-6-(5-cyano-1H-pyrrolo[2,3-b]pyridin-1-yl)-N-(2-fluoro-3-hydroxy-3-methylbutyl)-4-((3-(2-hydroxypropan-2-yl)phenyl)amino) nicotinamide]",1.6,153,–,–,–
CC(C)(O)[C@H](F)CNC(=O)c1cnc(N2CCc3cc(C#N)cnc32)cc1NC1CC1 [Example 616],–,–,10.9,425,"EC50 [2, 4]: 305 nM"
CC(C)Nc1cc(-n2ncc3cc(C#N)cnc32)ncc1C(=O)NCCCc1ncn[nH]1 [Example 213],14.8,428,–,–,–
CC(C)NC(=O)[C@H]1CC[C@H](Nc2cc(-n3ncc4cc(C#N)cnc43)ncc2C(=O)NC[C@@H](F)C(C)(C)O)CC1 [Example 641],–,–,6.4,718,–
CC(C)(O)[C@H](F)CNC(=O)c1cnc(-n2ncc3cc(C#N)cnc32)cc1N[C@H]1CC[C@@](C)(O)CC1 [Example 607],–,–,4,–,"EC50 [2, 4]: 332 nM"
CC(C)(O)[C@H](F)CNC(=O)c1cnc(-n2ncc3cc(C#N)cnc32)cc1Nc1cnn(CCC#N)c1 [Example 376],2.1,–,–,–,"IC50 [2, 3]: 349 nM"
COC1CCC(O)(CCNC(=O)c2cnc(-n3ncc4cc(C#N)cnc43)cc2NC(C)C)CC1 (stereo not drawn) [Example 291],3.5,–,–,–,"IC50 [2, 3]: 349 nM"
CC(C)Nc1cc(-n2ncc3cc(C#N)cnc32)ncc1C(=O)NCCc1cccnc1 [Example 276],4.7,–,–,–,"IC50 [2, 3]: 380 nM"
CC(C)Nc1cc(-n2ccc3cc(C#N)cnc32)ncc1C(=O)NCCC1(O)CCCC1 [Example 487],–,–,2,111,"EC50 [2, 4]: 34 nM"
